Laboratory results from BindingDB's records for doi:10.1021/jm031106i (Linkoping University, 2004).

How the values were obtained:
Test in all cases: Enzyme Inhibition Measurements
[1] = target: Plasmepsin I (Plasmodium falciparum, UniProt P39898)
Description: (§1) Enzyme activities were assayed by monitoring the hydrolysis of substrate in the presence or absence of inhibitor compounds. The hydrolysis was recorded as the increase in fluorescence intensity over a 10 min time period. IC50 values were obtained by assuming competitive inhibition and fitting the dose response data to the equation (Vi/V0) =1/ (1 + [I]/IC50)). The Ki was calculated by using Ki = IC50/ (1 + [S]/Km), and a Km value determined according to Michaelis-Menten.

[2] = target: Cathepsin D (Homo sapiens, UniProt P07339)
Sequence of Cathepsin D (P07339 65-162 limits assumed): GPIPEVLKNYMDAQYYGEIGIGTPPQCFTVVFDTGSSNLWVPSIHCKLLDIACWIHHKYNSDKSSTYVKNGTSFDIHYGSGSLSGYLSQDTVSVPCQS
Sequence of Cathepsin D (P07339 169-412 limits assumed): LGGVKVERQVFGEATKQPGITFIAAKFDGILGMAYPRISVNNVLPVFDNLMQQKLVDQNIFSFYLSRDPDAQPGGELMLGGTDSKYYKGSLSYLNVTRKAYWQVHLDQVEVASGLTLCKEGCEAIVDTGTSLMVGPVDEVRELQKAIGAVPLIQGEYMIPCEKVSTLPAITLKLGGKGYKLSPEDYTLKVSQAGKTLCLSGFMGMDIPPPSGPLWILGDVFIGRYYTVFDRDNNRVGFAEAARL
Description: as §1

[3] = target: Plasmepsin II (Plasmodium falciparum (isolate HB3), UniProt P46925); conditions: pH 4.5; 22 °C
Sequence of Plasmepsin II (P46925 whole entry): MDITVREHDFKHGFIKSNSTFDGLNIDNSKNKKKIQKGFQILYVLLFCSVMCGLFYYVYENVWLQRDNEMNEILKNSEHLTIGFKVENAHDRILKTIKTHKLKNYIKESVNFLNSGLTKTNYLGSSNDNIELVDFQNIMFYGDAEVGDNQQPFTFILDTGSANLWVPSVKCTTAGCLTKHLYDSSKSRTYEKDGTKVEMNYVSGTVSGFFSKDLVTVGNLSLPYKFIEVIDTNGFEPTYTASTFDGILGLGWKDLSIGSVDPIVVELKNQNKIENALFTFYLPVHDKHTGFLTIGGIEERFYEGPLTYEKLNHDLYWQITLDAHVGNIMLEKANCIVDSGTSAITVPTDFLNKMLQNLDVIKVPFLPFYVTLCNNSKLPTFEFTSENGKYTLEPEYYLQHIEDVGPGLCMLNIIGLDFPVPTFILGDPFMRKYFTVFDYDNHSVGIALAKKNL
Description: as §1

Sequence of Plasmepsin I (P39898 whole entry): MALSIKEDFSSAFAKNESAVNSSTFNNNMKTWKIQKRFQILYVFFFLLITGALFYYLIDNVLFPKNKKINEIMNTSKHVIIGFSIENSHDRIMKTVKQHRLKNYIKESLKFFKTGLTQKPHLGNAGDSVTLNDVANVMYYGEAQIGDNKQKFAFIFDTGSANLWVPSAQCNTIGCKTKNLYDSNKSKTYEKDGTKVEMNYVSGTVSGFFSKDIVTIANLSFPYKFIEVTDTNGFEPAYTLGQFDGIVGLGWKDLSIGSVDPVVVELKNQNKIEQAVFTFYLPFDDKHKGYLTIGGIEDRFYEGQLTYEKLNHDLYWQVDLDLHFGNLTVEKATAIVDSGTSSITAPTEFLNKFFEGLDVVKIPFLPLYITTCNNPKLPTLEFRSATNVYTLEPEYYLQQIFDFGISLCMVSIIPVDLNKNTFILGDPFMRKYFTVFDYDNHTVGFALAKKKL

Ki [1]: 0.0039 µM | Ki [2]: 0.586 µM | Ki [3]: 0.041 µM
SMILES: CC(C)[C@H](NC(=O)c1ccccn1)C(=O)N[C@@H](COCc1ccc(Br)cc1)[C@@H](O)CC(=O)NCC1CCCCC1 [(3S,4S)-5-[(4-bromophenyl)methoxy]-N-(cyclohexylmethyl)-3-hydroxy-4-[(2S)-3-methyl-2-(pyridin-2-ylformamido)butanamido]pentanamide]
